What was measured:
Type in all cases: in vivo
[1] = test system: barnyardgrass (Echinochloa crus-galli); experiment: Test G Pre-Emergence Protocol; details: Echinochloa crus-galli, pre-emergence, 312 h, evaluated after 13 days
Outline: (§1)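 Seeds were sown in standard soil and kept one day in a glasshouse (24/16° C day/night, 14 h light, 65% humidity), then sprayed with compound in acetone/water (50:50) containing 0.5% Tween 20 at 15.625, 62.5 or 250 g/ha. Damage was scored after 13 days (0 = none, 100 = total).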

[2] = test system: corn (Zea mays); experiment: Test G Pre-Emergence Protocol; details: Zea mays, pre-emergence, 312 h, evaluated after 13 days
Outline: as §1

[3] = test system: giant foxtail (Setaria faberi); experiment: Test G Pre-Emergence Protocol; details: Setaria faberi, pre-emergence, 312 h, evaluated after 13 days
Outline: as §1

[4] = test system: ivy-leaved morning glory (Ipomoea hederacea); experiment: Test G Pre-Emergence Protocol; details: Ipomoea, pre-emergence, 312 h, evaluated after 13 days
Outline: as §1

[5] = test system: redroot pigweed (Amaranthus retroflexus); experiment: Test G Pre-Emergence Protocol; details: Amaranthus retroflexus, pre-emergence, 312 h, evaluated after 13 days
Outline: as §1

[6] = test system: velvetleaf (Abutilon theophrasti); experiment: Test G Pre-Emergence Protocol; details: Abutilon theophrasti, pre-emergence, 312 h, evaluated after 13 days
Outline: as §1

[7] = test system: barnyardgrass (Echinochloa crus-galli); experiment: Test G Post-Emergence Protocol; details: Echinochloa crus-galli, post-emergence, 312 h, read-out: Barnyardgrass damage rating
Outline: (§2)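 Values are percent visual injury at 13 days after treatment (0 none, 100 total). Treatment was a post-emergence spray at 15.625, 62.5 or 250 g/ha on 8-day-old pot plants kept at 24/16 °C.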

[8] = test system: corn (Zea mays); experiment: Test G Post-Emergence Protocol; details: Zea mays, post-emergence, 312 h, read-out: Corn damage rating
Outline: as §2

[9] = test system: giant foxtail (Setaria faberi); experiment: Test G Post-Emergence Protocol; details: Setaria faberi, post-emergence, 312 h, read-out: Foxtail, Giant damage rating
Outline: as §2

[10] = test system: ivy-leaved morning glory (Ipomoea hederacea); experiment: Test G Post-Emergence Protocol; details: Ipomoea, post-emergence, 312 h, read-out: Morningglory, Ivy-leaved damage rating
Outline: as §2

[11] = test system: redroot pigweed (Amaranthus retroflexus); experiment: Test G Post-Emergence Protocol; details: Amaranthus retroflexus, post-emergence, 312 h, read-out: Pigweed, Redroot damage rating
Outline: as §2

[12] = test system: velvetleaf (Abutilon theophrasti); experiment: Test G Post-Emergence Protocol; details: Abutilon theophrasti, post-emergence, 312 h, read-out: Velvetleaf damage rating
Outline: as §2

[13] = 15.625 g ai/ha, evaluated after 13 days (100=total damage to plant; 0=no damage to plant)
[14] = 62.5 g ai/ha, evaluated after 13 days, 100=total damage to plant, 0=no damage to plant
[15] = 250 g ai/ha, evaluated after 13 days, 100=total damage to plant, 0=no damage to plant

## CN1C[C@H](c2ccc(C(F)(F)F)cc2)[C@@H](C(=O)Nc2ccc[n+]([O-])c2C(F)(F)F)C1=O (racemic) [Compound 1813]
[1]; 15.625 g ai/ha, read-out: Barnyardgrass damage rating (100=total damage to plant; 0=no damage to plant)
  pest or weed control at 15.625 g/ha: 0%
[1]; 62.5 g ai/ha, 100=total damage to plant, 0=no damage to plant, read-out: Barnyardgrass damage rating
  pest or weed control at 62.5 g/ha: 0%
[1]; 250 g ai/ha, read-out: Barnyardgrass damage rating (100=total damage to plant; 0=no damage to plant)
  pest or weed control at 250 g/ha: 10%
[2]; 15.625 g ai/ha, read-out: Corn damage rating (100=total damage to plant; 0=no damage to plant)
  plant injury at 15.625 g/ha: 0%
[2]; 62.5 g ai/ha, 100=total damage to plant, 0=no damage to plant, read-out: Corn damage rating
  plant injury at 62.5 g/ha: 0%
[2]; 250 g ai/ha, read-out: Corn damage rating (100=total damage to plant; 0=no damage to plant)
  plant injury at 250 g/ha: 0%
[3]; 15.625 g ai/ha, read-out: Foxtail, Giant damage rating (100=total damage to plant; 0=no damage to plant)
  pest or weed control at 15.625 g/ha: 0%
[3]; 62.5 g ai/ha, 100=total damage to plant, 0=no damage to plant, read-out: Foxtail, Giant damage rating
  pest or weed control at 62.5 g/ha: 10%
[3]; 250 g ai/ha, read-out: Foxtail, Giant damage rating (100=total damage to plant; 0=no damage to plant)
  pest or weed control at 250 g/ha: 90%
[4]; 15.625 g ai/ha, read-out: Morningglory, Ivy-leaved damage rating (100=total damage to plant; 0=no damage to plant)
  pest or weed control at 15.625 g/ha: 0%
[4]; 62.5 g ai/ha, 100=total damage to plant, 0=no damage to plant, read-out: Morningglory, Ivy-leaved damage rating
  pest or weed control at 62.5 g/ha: 0%
[4]; 250 g ai/ha, read-out: Morningglory, Ivy-leaved damage rating (100=total damage to plant; 0=no damage to plant)
  pest or weed control at 250 g/ha: 20%
[5]; 15.625 g ai/ha, read-out: Pigweed, Redroot damage rating (100=total damage to plant; 0=no damage to plant)
  pest or weed control at 15.625 g/ha: 0%
[5]; 62.5 g ai/ha, 100=total damage to plant, 0=no damage to plant, read-out: Pigweed, Redroot damage rating
  pest or weed control at 62.5 g/ha: 0%
[5]; 250 g ai/ha, read-out: Pigweed, Redroot damage rating (100=total damage to plant; 0=no damage to plant)
  pest or weed control at 250 g/ha: 20%
[6]; 15.625 g ai/ha, read-out: Velvetleaf damage rating (100=total damage to plant; 0=no damage to plant)
  pest or weed control at 15.625 g/ha: 0%
[6]; 62.5 g ai/ha, 100=total damage to plant, 0=no damage to plant, read-out: Velvetleaf damage rating
  pest or weed control at 62.5 g/ha: 0%
[6]; 250 g ai/ha, read-out: Velvetleaf damage rating (100=total damage to plant; 0=no damage to plant)
  pest or weed control at 250 g/ha: 30%
[7]; [13]
  pest or weed control at 15.625 g/ha: 0%
[7]; [14]
  pest or weed control at 62.5 g/ha: 0%
[7]; [15]
  pest or weed control at 250 g/ha: 0%
[8]; [13]
  plant injury at 15.625 g/ha: 0%
[8]; [14]
  plant injury at 62.5 g/ha: 0%
[8]; [15]
  plant injury at 250 g/ha: 0%
[9]; [13]
  pest or weed control at 15.625 g/ha: 0%
[9]; [14]
  pest or weed control at 62.5 g/ha: 0%
[9]; [15]
  pest or weed control at 250 g/ha: 20%
[10]; [13]
  pest or weed control at 15.625 g/ha: 0%
[10]; [14]
  pest or weed control at 62.5 g/ha: 10%
[10]; [15]
  pest or weed control at 250 g/ha: 40%
[11]; [13]
  pest or weed control at 15.625 g/ha: 0%
[11]; [14]
  pest or weed control at 62.5 g/ha: 0%
[11]; [15]
  pest or weed control at 250 g/ha: 20%
[12]; [13]
  pest or weed control at 15.625 g/ha: 0%
[12]; [14]
  pest or weed control at 62.5 g/ha: 0%
[12]; [15]
  pest or weed control at 250 g/ha: 10%

Source: patent publication US12077503B2, “Substituted cyclic amides and their use as herbicides” (FMC CORPORATION, priority 2015, dated 2024)
